According to patent US7291641B2, “Derivatives of heterocycles with 5 members, their preparation and their use as medicaments” (Societe de Conseils de Recherches et d'Applications …, priority 1999, dated 2007):
Where a name gives a salt, the structure may show the parent alone.

| melting point | SMILES |
| --- | --- |
| 170 to 172 °C | CN(Cc1nc(-c2ccccc2)c(-c2ccccc2)[nH]1)C(=O)OC(C)(C)C [Example 156, tert-butyl (4,5-diphenyl-1H-imidazol-2-yl)methyl(methyl)carbamate] |
| 218 to 220 °C | CCC[C@@H](NCc1ccccc1)c1nc(-c2ccccc2)c[nH]1 [Example 214, (1R)-N-benzyl-1-(4-phenyl-1H-imidazol-2-yl)-1-butanamine] |
| 192 to 194 °C | CCCCCCC(NCc1ccccc1)c1nc(-c2ccc(Cl)c(Cl)c2)c[nH]1 (racemic) [Example 77, (R,S)-N-benzyl-1-[4-(3,4-dichlorophenyl)-1H-imidazol-2-yl]-1-heptanamine] |
| 185 to 188 °C | CCCCCCC(NCc1ccccc1)c1nc(-c2ccc(C)cc2)c[nH]1 (racemic) (as salt: hydrochloride) [Example 200, (R,S)-N-benzyl-1-[4-(4-methylphenyl)-1H-imidazol-2-yl]-1-heptanamine] |
| 112 to 113 °C | CCCCOC(=O)NCCc1nc(-c2ccc(-c3cccc(OC)c3)cc2)c[nH]1 [Example 461, butyl 2-[4-(3′-methoxy-1,1′-biphenyl-4-yl)-1H-imidazol-2-yl]ethylcarbamate] |
| 140 to 142 °C | Fc1ccc(-c2c[nH]c([C@@H](NC3CCCCCC3)C3CCCCC3)n2)cc1 [Example 301, N-{(S)-cyclohexyl[4-(4-fluorophenyl)-1H-imidazol-2-yl]methyl}cycloheptanamine] |
| 87 °C | CCCCOC(=O)NCCc1nc(-c2ccc(F)cc2)c[nH]1 [Example 251, butyl 2-[4-(4-fluorophenyl)-1H-imidazol-2-yl]ethylcarbamate] |
| 94 to 96 °C | c1ccc(OCCN[C@H](Cc2c[nH]c3ccccc23)c2nc(-c3ccccc3)c[nH]2)cc1 [Example 108, (1R)-2-(1H-indol-3-yl)-N-(2-phenoxyethyl)-1-(4-phenyl-1H-imidazol-2-yl)ethanamine] |
| 168.4 °C | CCCCOC(=O)NCCc1nc(-c2ccc(-c3ccc(C)cc3)cc2)c[nH]1 [Example 394, butyl 2-[4-(4′-methyl-1,1′-biphenyl-4-yl)-1H-imidazol-2-yl]ethylcarbamate] |
| 149 to 150 °C | O=C(NCCc1nc(-c2ccc(F)cc2)c[nH]1)OCC1CCC1 [Example 286, cyclobutylmethyl 2-[4-(4-fluorophenyl)-1H-imidazol-2-yl]ethylcarbamate] |
| 120 to 122 °C | CCCCCCN(Cc1ccccc1)Cc1nc(-c2ccc(-c3ccccc3)cc2)c[nH]1 [Example 41, N-benzyl-N-[(4-[1,1′-biphenyl]-4-yl-1H-imidazol-2-yl)methyl]-1-hexanamine] |
| 92.4 °C | CCCCOC(=O)NCCc1nc(-c2ccc(CC)cc2)c[nH]1 [Example 450, butyl 2-[4-(4-ethylphenyl)-1H-imidazol-2-yl]ethylcarbamate] |
| 254.6 °C | CC(C)(C)c1cc(-c2c[nH]c([C@@H](NCC3CCCCC3)C3CCCCC3)n2)cc(C(C)(C)C)c1O (as salt: hydrochloride) [Example 291, 2,6-ditert-butyl-4-(2-{(S)-cyclohexyl[(cyclohexylmethyl)amino]-methyl}-1H-imidazol-4-yl)phenol] |
| 218 to 220 °C | CCCCCCC(N)c1nc(-c2ccc(C#N)cc2)c[nH]1 (racemic) (as salt: hydrochloride) [Example 205, (R,S)-4-[2-(1-aminoheptyl)-1H-imidazol-4-yl]benzonitrile] |
| 190 to 192 °C | Fc1ccc(-c2c[nH]c([C@@H](NCC3CCCCC3)C3CCCCC3)n2)cc1 (as salt: hydrochloride) [Example 295, (S)-1-cyclohexyl-N-(cyclohexylmethyl)-1-[4-(4-fluorophenyl)-1H-imidazol-2-yl]methanamine] |
| 70 to 74 °C | c1ccc(CN(Cc2ccccc2)Cc2nc(-c3ccc(-c4ccccc4)cc3)c[nH]2)cc1 [Example 144, N,N-dibenzyl(4-[1,1′-biphenyl]4-yl-1H-imidazol-2-yl)methanamine] |
| 182 to 184 °C | CC[C@H](NCc1ccccc1)c1nc(-c2ccccc2)c(-c2ccccc2)[nH]1 [Example 204, (1S)-N-benzyl-1-(4,5-diphenyl-1H-imidazol-2-yl)-1-propanamine] |
| 138 to 140 °C | CCCCCCC(N)c1nc(-c2ccccc2Cl)c[nH]1 (racemic) (as salt: hydrochloride) [Example 221, (R,S)-1-[4-(2-chlorophenyl)-1H-imidazol-2-yl]-1-heptanamine] |
| 220 to 222 °C | NC(Cc1c[nH]c2ccc(F)cc12)c1nc(-c2ccc(F)cc2)c[nH]1 (racemic) (as salt: hydrochloride) [Example 253, (R,S)-2-(5-fluoro-1H-indol-3-yl)-1-[4-(4-fluorophenyl)-1H-imidazol-2-yl]ethylamine] |

| melting point | SMILES |
| --- | --- |
| 238 to 240 °C | CCCCCCC(N)c1nc(-c2ccccc2OC)c[nH]1 (racemic) (as salt: hydrochloride) [Example 185, (R,S)-1-[4-(2-methoxyphenyl)-1H-imidazol-2-yl]heptylamine] |
| 60 to 62 °C | c1ccc(CNCc2nc(-c3ccccc3)cn2Cc2ccccc2)cc1 [Example 110, N-benzyl(1-benzyl-4-phenyl-1H-imidazol-2-yl)methanamine] |
| 165 to 170 °C | CN(Cc1ccccc1)Cc1nc(-c2cc(C(C)(C)C)c(O)c(C(C)(C)C)c2)cs1 [Example 7, 4-(2-{[benzyl(methyl)amino]methyl}-1,3-thiazol-4-yl)-2,6-di(tert-butyl)phenol] |
| 106 to 108 °C | CN(Cc1ccccc1)Cc1nc(-c2ccc(-c3ccccc3)cc2)c[nH]1 [Example 42, N-benzyl(4-[1,1′-biphenyl]-4-yl-1H-imidazol-2-yl)-N-methylmethanamine] |
| 141.5 °C | CCCCOC(=O)NCCc1nc(-c2ccc(-c3cccc(F)c3)cc2)c[nH]1 [Example 444, butyl 2-[4-(3′-fluoro-1,1′-biphenyl-4-yl)-1H-imidazol-2-yl]ethylcarbamate] |
| 83.2 °C | CCCCOC(=O)NCCc1nc(-c2ccc(CCC)cc2)c[nH]1 [Example 449, butyl 2-[4-(4-propylphenyl)-1H-imidazol-2-yl]ethylcarbamate] |
| 208 to 210 °C | N[C@H](c1nc(-c2ccccc2)c[nH]1)C1CCCCC1 (as salt: hydrochloride) [Example 80, (S)-cyclohexyl(4-phenyl-1H-imidazol-2-yl)methylamine] |
| 114 to 116 °C | c1ccc(CNC2(c3nc(-c4ccccc4)c[nH]3)CCCCC2)cc1 [Example 123, N-benzyl-1-(4-phenyl-1H-imidazol-2-yl)cyclohexanamine] |
| 96 to 100 °C | Cn1cc(-c2ccccc2)nc1[C@@H](Cc1c[nH]c2ccccc12)NC(=O)OC(C)(C)C [Example 148, tert-butyl (1R)-2-(1H-indol-3-yl)-1-(1-methyl-4-phenyl-1H-imidazol-2-yl)ethylcarbamate] |
| 136 to 138 °C | CC(C)(NCc1ccccc1)c1nc(-c2ccccc2)c[nH]1 [Example 139, N-benzyl-2-(4-phenyl-1H-imidazol-2-yl)-2-propanamine] |
| 147 °C | CCCCOC(=O)NCCc1nc(-c2ccc(-c3ccc(C#N)cc3)cc2)c[nH]1 [Example 451, butyl 2-[4-(4′-cyano-1,1′-biphenyl-4-yl)-1H-imidazol-2-yl]ethylcarbamate] |
| 162 to 164 °C | CC(C)(C)COC(=O)NCCc1nc(-c2ccc(-c3ccccc3)cc2)c[nH]1 [Example 203, 4-[2-(2-{[(neopentyloxy)carbonyl]amino}ethyl)-1H-imidazol-4-yl]-1,1′-biphenyl] |
| 118 to 120 °C | c1ccc(CN[C@@H](Cc2c[nH]c3ccccc23)c2nc(-c3ccccc3)c[nH]2)cc1 [Example 93, (1S)-N-benzyl-2-(1H-indol-3-yl)-1-(4-phenyl-1H-imidazol-2-yl)ethanamine] |
| 174 to 176 °C | c1ccc(CNCCc2nc(-c3ccc(-c4ccccc4)cc3)c[nH]2)cc1 [Example 164, N-benzyl-2-(4-[1,1′-biphenyl]-4-yl-1H-imidazol-2-yl)ethanamine] |
| 190 to 194 °C | Cn1cc(-c2ccc(F)cc2)nc1[C@@H](NC1CCCCC1)C1CCCCC1 (as salt: hydrochloride) [Example 279, N-{(S)-cyclohexyl[4-(4-fluorophenyl)-1-methyl-1H-imidazol-2-yl]methyl}cyclohexanamine] |
| 168 to 170 °C | CCCCCCC(NC1CCCCC1)c1nc(-c2ccc(-c3ccccc3)cc2)c[nH]1 (racemic) (as salt: hydrochloride) [Example 252, (R,S)-N-[1-(4-[1,1′-biphenyl]-4-yl-1H-imidazol-2-yl)heptyl]-cyclohexanamine] |
| 182 to 184 °C | CCCCCCC(N)c1nc(-c2ccc(-c3ccccc3)cc2)c[nH]1 (racemic) (as salt: hydrochloride) [Example 188, (R,S)-1-(4-[1,1′-biphenyl]-4-yl-1H-imidazol-2-yl)-heptanamine] |
| 220 to 222 °C | CC(C)(C)OC(=O)N[C@H](Cc1c[nH]c2ccccc12)c1nc(-c2ccc([N+](=O)[O-])cc2)c[nH]1 [Example 102, tert-butyl (1R)-2-(1H-indol-3-yl)-1-[4-(4-nitrophenyl)-1H-imidazol-2-yl]-ethylcarbamate] |
| 134 to 136 °C | c1ccc(CN[C@H](Cc2c[nH]c3ccccc23)c2nc(-c3ccccc3)cs2)cc1 [Example 100, (1R)-N-benzyl-2-(1H-indol-3-yl)-1-(4-phenyl-1,3-thiazol-2-yl)ethanamine] |

| SMILES | melting point |
| --- | --- |
| CCCCOC(=O)NCCc1nc(-c2ccc(-c3ccc(Br)cc3)cc2)c[nH]1 [Example 281, 4-bromo-4′-(2-{2-[(butoxycarbonyl)amino]ethyl}-1H-imidazol-4-yl)-1,1′-biphenyl] | 166 °C |
| CC(C)(C)OC(=O)NCc1nc(-c2ccc(-c3ccccc3)cc2)c[nH]1 [Example 137, 4-(2-{[(tert-butoxycarbonyl)amino]methyl}-1H-imidazol-4-yl)-1,1′-biphenyl] | 100 to 102 °C |
| CC(C)(C)OC(=O)NCc1nc(-c2ccc(-c3ccccc3)cc2)cn1Cc1ccccc1 [Example 140, 4-(1-benzyl-2-{[(tert-butoxycarbonyl)amino]methyl}-1H-imidazol-4-yl)-1,1′-biphenyl] | 167 to 169 °C |
